US11278575B2, “Compositions and methods for the treatment of demyelinating conditions” (Duke University, priority 2018, dated 2022)

Experiments:
DUOC-01 cells [1] = assay: Stability of day 21 DUOC-01 cells incubated with HC or Dex: viability (AOPI) and total viable cell count; type: cell-based, human; settings: for Averaged total viable cell numbers: DUOC-01 cells in Ringers, HC 3 mg/ml or Dex 25 ng/ml, average of six experiments
Description: FIG. 1 illustrates that HC increases the viability of DUOC-01 cells over time. Viability was measured by AOPI using the Nexcelom Cellometer Auto 2000 (n=6 samples per time point; 2-way ANOVA p<0.001 for treatment factor; Tukey's post-hoc[…]).
(§1) First, to test stability, day +21 DUOC-01 cells were harvested into ringers lactate and incubated with HC for up to 4 hours to determine whether there was any change in viability or stability.
(§2) DUOC-01 cells were cultured using standard procedures from cryopreserved and thawed cord blood units, then harvested on day 21 and re-suspended in Ringers. After initial count and viability, the cell suspension was divided into three conditions: (1) Ringer's solution, (2) 3 mg/ml HC, (3) 25 ng/ml Dex.
(§3) Based on previous stability studies, the cells were incubated for 4 hours at room temperature and characterized every hour for 4 hours. The viability of DUOC-01 cells over time was consistently greater with cells incubated with HC compared to DUOC-01 cells incubated with dexamethasone or Ringer's solution (FIG. 1).

DUOC-01 cells [2] = assay: Surface marker expression of DUOC-01 cells by flow cytometry after adding HC or Dex; type: cell-based, human; settings: up to 4 hours after adding HC (3 mg/ml) or Dex (25 ng/ml)
Description: DUOC-01 cells were collected 4 hours after adding HC or dexamethasone (Dex). The expression of CD45 (FIG. 2A), CD11b (FIG. 2B), Trem2 (FIG. 2C), and CD14 (FIG. 2D) were analyzed by flow cytometry (n=6 per condition).
as §1, §2, §3

[3] = system: corpus callosum of NSG mice treated with cuprizone; assay: Cuprizone demyelination model, myelination score by LFB-PAS staining; type: in vivo; settings: one week after injection into corpus callosum of CPZ-treated mice; 1×10^5 cells; cells incubated 2 hours in 3 mg/ml HC where HC is used
Source text: Myelination score based on LFB-PAS staining of mice one week after treatment of CPZ-treated mice with, Ringer's, Ringers+HC, DUOC-01 cells, or DUOC-01 cells exposed to HC (1×10^5 cell injected). […] Two independent, blinded readers scored coded LFB-PAS stained sections at the mid-line corpus callosum area, between zero and 3. Data are presented as mean ±SEM (ANOVA for cells P<0.001; n=9-16 mice per group, *P<0.05, Tukey's post-hoc test; pooled 2 independent experiments). […] DUOC-01 cells were cultured via standard procedures from frozen cord blood units in the GMP facility and harvested on day 21. After initial count and viability, the cell suspension was split into two conditions at a concentration of 20,000 cells/μl: (1) Ringers, and (2) Ringers +3 mg/ml HC. Based on previous stability studies, the cells were incubated in HC for 2 hours at room temperature prior to injections. To determine if HC would affect the ability of DUOC-01 cells to promote remyelination, Ringer's solution or DUOC-01 cells was injected into the corpus callosum of NSG mice treated with cuprizone, as previously described (Saha et al. JCI Insight 2016). One week following treatment, brains were harvested and analysis of myelination by LFB-PAS staining was conducted.

Row | Compound | Averaged total viable cell numbers (DUOC-01 cells [1]; 1 hr at room temperature) | Averaged total viable cell numbers (DUOC-01 cells [1]; 2 hr at room temperature) | Averaged total viable cell numbers (DUOC-01 cells [1]; 3 hr at room temperature) | Averaged total viable cell numbers (DUOC-01 cells [1]; 4 hr at room temperature) | Viability of DUOC-01 cells over time (AOPI) (DUOC-01 cells [1]; up to 4 hours, 3 mg/ml HC, compared with dexamethasone or Ringer's solution) | Expression level of DUOC-01 surface markers (CD45, CD14, TREM2, CD11b) (DUOC-01 cells [2]) | Remyelination (myelination score, LFB-PAS, mid-line corpus callosum) [3]
1 | C[C@@H]1C[C@H]2[C@@H]3CCC4=CC(=O)C=C[C@]4(C)[C@@]3(F)[C@@H](O)C[C@]2(C)[C@@]1(O)C(=O)CO [Dexamethazone, dexamethasone] | 923,563 | 813,750 | 821,250 | 706,875 | – | – | –
2 | C[C@]12CCC(=O)C=C1CC[C@@H]1[C@@H]2[C@@H](O)C[C@@]2(C)[C@H]1CC[C@]2(O)C(=O)CO [HC, hydrocortisone] | 959,688 | 821,667 | 910,604 | 742,000 | improved the viability | did not change the expression level | did not inhibit the ability of DUOC-01 cells to promote remyelination
